In patent publication US9868737B2, “Pyridino[1,2-A]pyrimidone analogue used as MTOR/P13K inhibitor” (CISEN PHARMACEUTICAL CO., LTD., priority 2014, dated 2018):
Like-named read-outs stand apart in the source and are kept apart here.

What was measured:
mTOR kinase = molecular target: T1, mTOR kinase (Homo sapiens, UniProt P42345); test: mTOR kinase assay; type: biochemical; details: in vitro enzyme activity assay; ATP 100 μM; read-out: mTOR enzyme activity_IC50
T1 construct: made in house
Protocol: 2. Experimental Procedures and Methods of the mTOR Kinase Assay
The objective was to evaluate the inhibitory effect of the subject samples on the mTOR kinase activity at molecular level.
(§1) PerkinElmer Envision 2104 Multilabel Reader.
The mTOR Kinase Assay (384 wells) was purchased from PerkinElmer company; the mTOR kinase was made in our lab.
Each solution was prepared according to the instructions provided in the mTOR Kinase Assay. The kinase reaction was carried out in white 384-well plates (Proxiplate-384 plus). 2.5 μl of DMSO (the concentration was consistent with the highest concentration of DMSO for the test compounds) was added to each of the two control wells with and without enzyme, and then 2.5 μl of a series of different concentrations of the test compounds was added to each test well. ULight-4E-BP1 (Thr37/46) PeptideATP mix (the final concentration of ATP was 100 μM) and 5 μl of mTOR kinase were added to the control well containing enzyme as well as the test wells, and fully mixed. The plate was sealed with Parafilm and incubated for 2 h. Then 5 μl of stop solution was added and incubated for 5 minutes. Afterwards, 5 μl of Detection Mix (Eu-anti-phospho-4E-BP1 (Thr37/46) Antibody, the final concentration was 2 nM) was added and incubated for 1 h, and then the mixture was detected.
(§2) The IC50 value was calculated through the GraphPad software after plotting the relative inhibitory rate versus concentration.

PI3K (p110α) kinase = molecular target: T2, PI3K (p110α) kinase (Homo sapiens, UniProt P42336); test: PI3K (p110α) kinase assay (PI3K HTRF Assay); type: biochemical; details: in vitro enzyme activity assay, 10 μM PIP2, read-out: PI3K (p110α) enzyme activity_IC50
T2 construct: made in house
Excerpt: Conclusion: The compounds of the present invention have significant inhibitory effect on mTOR/PI3K. Example In Vitro Enzyme Activity Assay 1. The experimental procedures and methods of PI3K (p110α) kinase assay: 1) Experimental Objective
The objective was to evaluate the inhibitory effect of the subject samples on PI3K (p110α) kinase activity at molecular level.
as §1
PI 3-Kinase HTRF Assay (384 wells) was purchased from Upstate (Millipore) company: PI3K (p110α) kinase was made in our lab.
c) Experimental procedures
Each solution was prepared according to the instructions provided in the Kinase PI 3-Kinase HTRF Assay. The kinase reaction was carried out in white 384-well plates (Proxiplate-384 plus), 0.5 μl of DMSO (the concentration was consistent with the highest concentration of DMSO for the test compounds) was added to each of the two control wells with and without enzyme, and then 0.5 μl of a series of different concentrations of the test compounds was added to each well to be tested. The kinase reaction liquid (10 μM substrate PIP2, 0.5 ng PI3K (p110α)) was added to the control well containing enzyme and the test wells, while only working reaction liquid (10 μM substrate PIP2) was added to the control well without enzyme, and finally, 5 μM ATP working reaction liquid was added to activate the reaction. After the reaction was carried out at room temperature for 30 min, the stop solution was added to each well to terminate the kinase reaction. After the mixture was fully mixed, the detection liquid was added to each well and fully mixed. The plate was sealed with Parafilm and placed in the dark. After incubated overnight, the mixture was detected.
as §2

MCF-7 cells = test: In vitro test of cell activity (MCF-7 cells, insulin stimulation, ELISA-One fluorescence); type: cell-based; details: Homo sapiens, MCF7, MCF-7 cells; for inhibition at 0.5 µM: conc. 0.5 μM; for inhibition at 0.25 µM: conc. 0.25 μM; for inhibition at 1 µM: conc. 1 μM
In short: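 MCF-7 cells, seeded at 2.5×10^4/well in 10% FBS medium, were given compound in serum-free medium for 2 h at one concentration (screen) or a series (IC50). Insulin stimulation followed at […] final for 30 min; lysates assayed by ELISA-One sandwich immunoassay with fluorescence read-out.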

T2 sequence (P42336 whole entry): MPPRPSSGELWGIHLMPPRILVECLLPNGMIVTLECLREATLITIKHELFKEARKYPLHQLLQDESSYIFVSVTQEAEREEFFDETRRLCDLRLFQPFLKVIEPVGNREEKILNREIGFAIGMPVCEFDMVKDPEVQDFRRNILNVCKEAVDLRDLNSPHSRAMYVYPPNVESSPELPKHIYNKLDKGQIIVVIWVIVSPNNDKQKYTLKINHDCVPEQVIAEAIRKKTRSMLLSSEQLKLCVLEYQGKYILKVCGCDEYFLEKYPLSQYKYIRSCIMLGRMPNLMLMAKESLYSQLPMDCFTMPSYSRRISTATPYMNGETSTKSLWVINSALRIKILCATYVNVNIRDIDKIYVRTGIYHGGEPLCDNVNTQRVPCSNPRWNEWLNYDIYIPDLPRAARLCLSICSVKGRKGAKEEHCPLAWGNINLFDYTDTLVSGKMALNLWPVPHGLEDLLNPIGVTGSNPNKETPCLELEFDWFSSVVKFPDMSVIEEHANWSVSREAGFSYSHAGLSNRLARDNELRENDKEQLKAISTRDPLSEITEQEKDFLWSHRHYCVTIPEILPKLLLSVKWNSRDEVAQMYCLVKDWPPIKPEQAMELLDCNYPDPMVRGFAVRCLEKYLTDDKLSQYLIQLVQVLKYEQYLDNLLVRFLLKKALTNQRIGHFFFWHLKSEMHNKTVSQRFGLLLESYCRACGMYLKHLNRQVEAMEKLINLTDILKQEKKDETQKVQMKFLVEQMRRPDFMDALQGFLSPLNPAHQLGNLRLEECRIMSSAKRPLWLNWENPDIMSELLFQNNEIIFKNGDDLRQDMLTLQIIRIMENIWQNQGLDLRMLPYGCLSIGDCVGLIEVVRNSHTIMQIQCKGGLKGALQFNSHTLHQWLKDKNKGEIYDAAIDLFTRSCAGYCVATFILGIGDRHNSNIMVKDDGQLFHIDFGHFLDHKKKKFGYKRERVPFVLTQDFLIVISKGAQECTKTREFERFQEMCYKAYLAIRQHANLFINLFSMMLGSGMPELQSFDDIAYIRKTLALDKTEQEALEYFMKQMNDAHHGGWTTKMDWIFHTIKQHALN

Compound | IC50 (mTOR kinase) | IC50 (PI3K (p110α) kinase) | IC50 (MCF-7 cells; read-out: IC50 p-AKT) | IC50 (MCF-7 cells; read-out: IC50 p-p70S6K) | inhibition at 0.5 µM (MCF-7 cells; read-out: % inhibition AKT) | inhibition at 0.5 µM (MCF-7 cells; read-out: % inhibition p70s6k) | inhibition at 0.25 µM (MCF-7 cells; read-out: % inhibition AKT) | inhibition at 0.25 µM (MCF-7 cells; read-out: % inhibition p70s6k) | inhibition at 1 µM (MCF-7 cells; read-out: % inhibition AKT) | inhibition at 1 µM (MCF-7 cells; read-out: % inhibition p70s6k)
COc1ncc(-c2ccc3nccc(=O)n3c2)cc1NS(=O)(=O)c1ccc(Cl)s1 [compound 36] | 1 to 10 nM | 1 to 10 nM | ≤ 50 nM | ≤ 50 nM | 96.4% | 94.7% |  |  |  | 
COc1ncc(-c2ccc3nccc(=O)n3c2)cc1NS(=O)(=O)c1ccc(F)cc1Cl [compound 25] | 10 to 50 nM | 1 to 10 nM | ≤ 50 nM | 50 to 100 nM |  |  |  |  | 95.1% | 94.1%
COc1ncc(-c2ccc3ncc(F)c(=O)n3c2)cc1NS(=O)(=O)c1ccc(F)cc1F [compound 61, 2,4-difluoro-N-(5-(3-fluoro-4-oxo-4H-pyrido[1,2-a]pyrimidin-7-yl)-2-methoxypyridin-3-yl)benzsulfamide] | ≤ 1 nM | 10 to 50 nM | ≤ 50 nM | ≤ 50 nM | 78.9% | 89.7% |  |  |  | 
COc1ncc(-c2ccc3nccc(=O)n3c2)cc1NS(=O)(=O)c1ccc(F)cc1C [compound 26] | 10 to 50 nM | 1 to 10 nM | ≤ 50 nM | 50 to 100 nM |  |  |  |  | 95.6% | 93.7%
COc1ncc(-c2ccc3ncc(Cl)c(=O)n3c2)cc1NS(=O)(=O)c1ccc(F)cc1Cl [compound 135] | 1 to 10 nM | ≤ 1 nM | ≤ 50 nM | 50 to 100 nM | 95.2% | 87.6% |  |  |  | 
COc1ncc(-c2ccc3ncc(C)c(=O)n3c2)cc1NS(=O)(=O)c1ccc(F)cc1F [compound 81, 2,4-difluoro-N-(2-methoxy-5-(3-methyl-4-oxo-4H-pyrido[1,2-a]pyrimidin-7-yl)pyridin-3-yl)benzsulfamide] | 1 to 10 nM | 1 to 10 nM | ≤ 50 nM | 100 to 250 nM | 90.1% | 85.5% |  |  |  | 
COc1ncc(-c2ccc3nccc(=O)n3c2)cc1NS(=O)(=O)c1ccc(C)cc1F [compound 28] | 10 to 50 nM | 1 to 10 nM | ≤ 50 nM | 50 to 100 nM |  |  |  |  | 96.2% | 93.9%
COc1ncc(-c2ccc3ncc(C)c(=O)n3c2)cc1NS(=O)(=O)c1ccc(F)cc1Cl [compound 83] | 1 to 10 nM | ≤ 1 nM | ≤ 50 nM | 50 to 100 nM | 95% | 87.9% |  |  |  | 
COc1ncc(-c2ccc3nccc(=O)n3c2)cc1NS(=O)(=O)c1ccc(F)cc1F [compound 1, 2,4-difluoro-N-(2-methoxy-5-(4-oxo-4H-pyrido[1,2-a]pyrimidin-7-yl)pyridin-3-yl)benzsulfamide] | 10 to 50 nM | 1 to 10 nM | ≤ 50 nM | 50 to 100 nM |  |  |  |  | 97.5% | 42.4%
COc1ncc(-c2ccc3ncc(Cl)c(=O)n3c2)cc1NS(=O)(=O)c1ccc(F)cc1F [compound 132, N-(5-(3-chloro-4-oxo-4H-pyrido[1,2-a]pyrimidin-7-yl)-2-methoxypyridin-3-yl)-2,4-difluorobenzsulfamide] | 1 to 10 nM | 1 to 10 nM | ≤ 50 nM | 100 to 250 nM | 93% | 88.8% |  |  |  | 
COc1ncc(-c2ccc3ncc(OC)c(=O)n3c2)cc1NS(=O)(=O)c1ccc(F)cc1Cl [compound 104] | 10 to 50 nM | 1 to 10 nM | ≤ 50 nM | ≤ 50 nM | 95.2% | 91.7% |  |  |  | 
COc1ncc(-c2ccc3nccc(=O)n3c2)cc1NS(=O)(=O)c1ccccc1Cl [compound 30] | 10 to 50 nM | ≤ 1 nM | ≤ 50 nM | 50 to 100 nM |  |  |  |  | 95% | 93.4%

Continued, in another order:

IC50 (mTOR kinase) | IC50 (PI3K (p110α) kinase) | IC50 (MCF-7 cells; read-out: IC50 p-AKT) | IC50 (MCF-7 cells; read-out: IC50 p-p70S6K) | Compound | inhibition at 0.5 µM (MCF-7 cells; read-out: % inhibition AKT) | inhibition at 0.5 µM (MCF-7 cells; read-out: % inhibition p70s6k) | inhibition at 0.25 µM (MCF-7 cells; read-out: % inhibition AKT) | inhibition at 0.25 µM (MCF-7 cells; read-out: % inhibition p70s6k) | inhibition at 1 µM (MCF-7 cells; read-out: % inhibition AKT) | inhibition at 1 µM (MCF-7 cells; read-out: % inhibition p70s6k)
1 to 10 nM | 1 to 10 nM | ≤ 50 nM | ≤ 50 nM | COc1ncc(-c2ccc3ncc(Cl)c(=O)n3c2)cc1NS(=O)(=O)c1c(Cl)cccc1Cl [compound 149] |  |  | 92% | 80.7% |  | 
1 to 10 nM | ≤ 1 nM | ≤ 50 nM | ≤ 50 nM | COc1ncc(-c2ccc3ncc(Cl)c(=O)n3c2)cc1NS(=O)(=O)c1sccc1Cl [compound 150] |  |  | 93.5% | 82.3% |  | 
50 to 100 nM | ≤ 1 nM | ≤ 50 nM | ≤ 50 nM | CCOc1cnc2ccc(-c3cnc(OC)c(NS(=O)(=O)c4ccc(Cl)s4)c3)cn2c1=O [compound 174] |  |  | 92.5% | 78.4% |  | 
 | ≤ 1 nM | ≤ 50 nM |  | COc1ncc(-c2ccc3ncc(OCC4COC4)c(=O)n3c2)cc1NS(=O)(=O)c1ccccc1Cl [compound 257] |  |  |  |  |  | 
1 to 10 nM | ≤ 1 nM | ≤ 50 nM | ≤ 50 nM | COc1ncc(-c2ccc3ncc(Cl)c(=O)n3c2)cc1NS(=O)(=O)c1sc(C)nc1C [compound 153] |  |  | 91.6% | 83.5% |  | 
≤ 1 nM | ≤ 1 nM | ≤ 50 nM | ≤ 50 nM | COc1ncc(-c2ccc3ncc(Cl)c(=O)n3c2)cc1NS(=O)(=O)c1ccc(Cl)s1 [compound 144] | 95.8% | 89.4% |  |  |  | 
 | ≤ 1 nM | 100 to 250 nM |  | COc1ncc(-c2ccc3ncc(OCC4COC4)c(=O)n3c2)cc1NS(=O)(=O)c1ccc(F)cc1C [compound 255] |  |  |  |  |  | 
